In article PMC5833004 (ACS Central Science, 2018):
Entries after “also recorded” stand apart in the source; their conditions may differ. Values belong to the compound of their own block, whether it stands above or below them.

Legend:
[1] = target: GFP-fused multimerized CBP bromodomain (Homo sapiens, UniProt Q92793); test: FRAP assay in U2OS cells, GFP-fused CBP bromodomain; assay type: cell-based; details: compound 1 μM, 2.5 μM SAHA
Kasumi cells = test: Cell proliferation, resazurin assay; assay type: cell-based, human; details: 72 h or 144 h
c-MYC mRNA = test: RT-qPCR mRNA transcription in LP1 cells; assay type: cell-based, human; details: 6 h incubation, dose-response
[2] = system: MRC5 nontransformed fibroblast; test: Cell proliferation, resazurin assay; assay type: cell-based; details: Homo sapiens, MRC5, 72 h, read-out: GI50 MRC5
bromodomain of CBP = bromodomain of CBP (Homo sapiens, UniProt Q92793); test: Alpha Screen assay; assay type: binding
LP1 cells = test: Cell proliferation, resazurin assay; assay type: cell-based, human; details: 72 h or 144 h
IRF4 mRNA = test: RT-qPCR mRNA transcription in LP1 cells; assay type: cell-based, human; details: 6 h incubation, dose-response
HL-60 cells = test: Cell proliferation, resazurin assay; assay type: cell-based; details: 144 h

SMILES: CCOc1ccc(C(C)=O)cc1NC(=O)c1ccc(C)c(NC(=O)c2ccco2)c1 [Compound 7]
displacement of GFP-fused CBP bromodomain from chromatin (FRAP) [1]: significant displacement

SMILES: CCOc1ccc(C(C)=O)cc1NC(=O)Cc1csc(-c2ccc(OC)c(OC)c2)n1 [Compound 6]
displacement of GFP-fused CBP bromodomain from chromatin (FRAP) [1]: significant displacement

SMILES: CCOc1ccc(C(C)=O)cc1-c1ccc(N2CCCS2(=O)=O)cc1C [Compound 13]
displacement of GFP-fused CBP bromodomain from chromatin (FRAP) [1]: significant displacement

The next lines start with results.

displacement of GFP-fused CBP bromodomain from chromatin (FRAP) [1]: significant displacement
SMILES: CCOc1ccc(C(C)=O)cc1NC(=O)c1cc(NC(C)=O)cc(NC(=O)c2ccc(OC)c(OC)c2)c1 [Compound 17]

affinity for CBP bromodomain higher by a factor with respect to BRD4(1) (bromodomain of CBP): more than 10,000
SMILES: CCOc1ccc(C(C)=O)cc1NC(=O)c1cc(NC(C)=O)cc(NC(=O)c2ccco2)c1 [Compound 16]
proliferation of Kasumi cells (Kasumi cells): selectively inhibited the proliferation
c-MYC mRNA level (c-MYC mRNA): reduced
GI50 [2]: > 20 µM
displacement of GFP-fused CBP bromodomain from chromatin (FRAP) [1]: significant displacement; also recorded: strongest effect
proliferation of LP1 cells (LP1 cells): selectively inhibited the proliferation
IRF4 mRNA level (IRF4 mRNA): reduced
proliferation of HL-60 cells (HL-60 cells): selectively inhibited the proliferation
